Laboratory results published in ChEMBL document CHEMBL1147420, “Synthesis and biological evaluation of novel coumarin derivatives with a 7-azomethine linkage” (2004).

What was measured:
Format in all cases: functional
[1] = target: T1, Seed linoleate 13S-lipoxygenase-1 (Glycine max) (UniProt P08170); test: Compound was evaluated for in vitro inhibition of soybean lipoxygenase at 0.1 mM concentration
T1 sequence (whole entry): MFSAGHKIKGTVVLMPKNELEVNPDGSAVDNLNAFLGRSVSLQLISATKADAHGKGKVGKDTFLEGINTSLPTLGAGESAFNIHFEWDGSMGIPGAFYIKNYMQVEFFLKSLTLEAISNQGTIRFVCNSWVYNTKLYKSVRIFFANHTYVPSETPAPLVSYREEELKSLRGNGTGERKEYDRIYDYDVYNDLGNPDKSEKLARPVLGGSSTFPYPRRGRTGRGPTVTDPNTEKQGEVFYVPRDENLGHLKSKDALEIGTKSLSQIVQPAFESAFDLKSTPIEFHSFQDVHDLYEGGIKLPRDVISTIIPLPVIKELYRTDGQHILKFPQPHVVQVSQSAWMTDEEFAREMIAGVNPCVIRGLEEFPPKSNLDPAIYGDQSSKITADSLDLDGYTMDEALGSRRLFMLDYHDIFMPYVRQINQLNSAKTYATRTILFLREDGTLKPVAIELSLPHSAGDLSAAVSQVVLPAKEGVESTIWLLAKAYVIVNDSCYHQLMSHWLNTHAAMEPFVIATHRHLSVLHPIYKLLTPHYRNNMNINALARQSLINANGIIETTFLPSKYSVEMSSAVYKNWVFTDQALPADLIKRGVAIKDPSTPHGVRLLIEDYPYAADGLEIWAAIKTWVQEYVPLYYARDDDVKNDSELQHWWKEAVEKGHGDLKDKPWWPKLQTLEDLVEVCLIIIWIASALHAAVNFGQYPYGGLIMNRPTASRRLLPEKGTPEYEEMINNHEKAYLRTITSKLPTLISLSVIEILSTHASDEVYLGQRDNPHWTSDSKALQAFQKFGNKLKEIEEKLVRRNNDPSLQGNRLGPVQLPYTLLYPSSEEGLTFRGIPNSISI

[2] = Competition percent of compound with DMSO for hydroxyl radical was determined at 0.01 mM concentration
[3] = Interaction percent with DPPH after 60 minutes was determined at 0.5 mM concentration
[4] = target: T2, Beta-glucuronidase (Bos taurus) (UniProt A3KMY8); test: Compound was evaluated for in vitro inhibition of beta-glucuronidase at 1 mM concentration
T2 sequence (whole entry): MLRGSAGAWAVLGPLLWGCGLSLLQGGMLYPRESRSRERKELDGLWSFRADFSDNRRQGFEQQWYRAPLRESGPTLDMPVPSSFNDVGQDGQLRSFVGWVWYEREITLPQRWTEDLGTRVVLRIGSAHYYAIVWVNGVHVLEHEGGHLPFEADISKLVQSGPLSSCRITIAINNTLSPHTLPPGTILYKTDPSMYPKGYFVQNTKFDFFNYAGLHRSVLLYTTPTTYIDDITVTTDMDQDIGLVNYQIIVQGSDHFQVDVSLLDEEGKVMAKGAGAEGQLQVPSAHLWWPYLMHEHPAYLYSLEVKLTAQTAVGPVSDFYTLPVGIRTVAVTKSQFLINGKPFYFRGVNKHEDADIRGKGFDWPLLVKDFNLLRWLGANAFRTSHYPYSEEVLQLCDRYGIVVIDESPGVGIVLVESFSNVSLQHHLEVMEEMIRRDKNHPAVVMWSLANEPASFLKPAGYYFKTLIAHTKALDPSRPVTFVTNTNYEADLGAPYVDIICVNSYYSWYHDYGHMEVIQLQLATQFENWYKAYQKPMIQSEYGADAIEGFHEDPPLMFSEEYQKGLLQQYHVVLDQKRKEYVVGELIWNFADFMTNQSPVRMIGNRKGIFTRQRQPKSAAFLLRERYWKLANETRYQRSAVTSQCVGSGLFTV

[5] = Interaction percent with DPPH after 20 minutes was determined at 0.5 mM concentration
[6] = target: T2, Beta-glucuronidase (Bos taurus); test: Compound was evaluated for in vitro inhibition of beta-glucuronidase at 0.1 mM concentration; […]
[7] = target: Serine protease 1 (Homo sapiens) (UniProt P07477); test: Compound was evaluated for in vitro inhibition of trypsin acting as esterase at 0.1 mM concentration
Sequence of Serine protease 1 (Homo sapiens) (P07477 whole entry): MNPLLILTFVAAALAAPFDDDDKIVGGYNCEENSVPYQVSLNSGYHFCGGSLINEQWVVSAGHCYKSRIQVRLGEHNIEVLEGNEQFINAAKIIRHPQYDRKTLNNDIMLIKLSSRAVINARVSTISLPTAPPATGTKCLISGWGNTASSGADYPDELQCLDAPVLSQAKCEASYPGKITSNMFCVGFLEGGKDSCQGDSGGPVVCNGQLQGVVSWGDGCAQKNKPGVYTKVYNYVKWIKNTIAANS

[8] = target: Serine protease 1 (Homo sapiens) (UniProt P07477); test: Compound was evaluated for in vitro inhibition of trypsin induced proteolysis at 0.1 mM concentration
[9] = target: Chymotrypsinogen B (Homo sapiens) (UniProt P17538); test: Compound was evaluated for in vitro inhibition of chymotrypsinogen induced proteolysis at 1 mM concentration
Sequence of Chymotrypsinogen B (Homo sapiens) (P17538 34-164 limits assumed, other chains not shown): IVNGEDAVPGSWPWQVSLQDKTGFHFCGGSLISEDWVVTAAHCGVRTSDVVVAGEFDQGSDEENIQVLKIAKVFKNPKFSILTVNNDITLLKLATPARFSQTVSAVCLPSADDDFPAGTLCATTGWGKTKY
Sequence of Chymotrypsinogen B (Homo sapiens) (P17538 167-263 limits assumed, other chains not shown): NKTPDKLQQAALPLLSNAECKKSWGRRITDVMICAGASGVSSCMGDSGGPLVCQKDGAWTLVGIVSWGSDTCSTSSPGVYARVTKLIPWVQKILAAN

[10] = target: Chymotrypsinogen B (Homo sapiens) (UniProt P17538); test: Compound was evaluated for in vitro inhibition of chymotrypsinogen acting as esterase at 0.1 mM concentration
[11] = Interaction percent with DPPH after 60 minutes was determined at 0.1 mM concentration
[12] = Competition percent of compound with DMSO for hydroxyl radical was determined at 0.1 mM concentration
[13] = target: T1, Seed linoleate 13S-lipoxygenase-1 (Glycine max); test: Compound was evaluated for in vitro inhibition of soybean lipoxygenase at 1 mM concentration
[14] = Compound was evaluated for percent inhibition of carrageenan induced rat paw edema at 0.005 mmol/kg
[15] = target: Chymotrypsinogen B (Homo sapiens) (UniProt P17538); test: Compound was evaluated for in vitro inhibition of chymotrypsinogen induced proteolysis at 0.1 mM concentration
[16] = target: Chymotrypsinogen B (Homo sapiens) (UniProt P17538); test: Compound was evaluated for in vitro inhibition of chymotrypsinogen acting as esterase at 1 mM concentration
[17] = Interaction percent with DPPH after 20 minutes was determined at 0.1 mM concentration
[18] = target: Serine protease 1 (Homo sapiens) (UniProt P07477); test: Compound was evaluated for in vitro inhibition of trypsin acting as esterase at 1 mM concentration
[19] = Interaction percent with DPPH after 60 minutes was determined at 0.2 mM concentration
[20] = target: Serine protease 1 (Homo sapiens) (UniProt P07477); test: Compound was evaluated for in vitro inhibition of trypsin induced proteolysis at 1 mM concentration
[21] = Interaction percent with DPPH after 20 minutes was determined at 0.2 mM concentration
[22] = target: Serine protease 1 (Homo sapiens) (UniProt P07477); test: Compound was evaluated for in vitro inhibition of trypsin induced proteolysis at 0.1 mM concentration; no action
[23] = target: Chymotrypsinogen B (Homo sapiens) (UniProt P17538); test: Compound was evaluated for in vitro inhibition of chymotrypsinogen induced proteolysis at 0.1 mM concentration; no action
[24] = target: T2, Beta-glucuronidase (Bos taurus); test: Compound was evaluated for in vitro inhibition of beta-glucuronidase at 0.1 mM concentration
[25] = target: T1, Seed linoleate 13S-lipoxygenase-1 (Glycine max); test: Compound was evaluated for in vitro inhibition of soybean lipoxygenase at 0.1 mM concentration; no action
[26] = Competition percent of compound with DMSO for hydroxyl radical was determined at 0.1 mM concentration; No result

Compound | inhibition [1] | inhibition [4] | inhibition [7] | inhibition [8] | inhibition [9] | inhibition [10] | inhibition [13] | inhibition [15] | inhibition [16] | inhibition [18] | inhibition [20] | Competition [2] | RA [3] | RA [5] | RA [11] | Competition [12] | inhibition in vivo at 5 µmol/kg [14] | RA [17] | RA [19] | RA [21] | further results
O=c1ccc2ccc(/C=N/Nc3ccccc3)cc2o1 | 77.4% | 96.8% | 31.4% | – | 80.1% | 30.6% | 71.2% | – | 88.7% | 99.9% | 64.5% | 15.4% | 79.1% | 78.7% | 56.2% | 65.5% | 35.2% | 36.2% | 64.4% | 48.9% | inhibition [22]: No action; inhibition [23]: No action; inhibition [24]: 5.9%
O=c1ccc2ccc(/C=N/N=C/c3ccc4ccc(=O)oc4c3)cc2o1 | 8.6% | 100% | 9.4% | 99.9% | 100% | 29.9% | 10.2% | 24.5% | 65.2% | 65.4% | 100% | 44.5% | 67.5% | 64.4% | 9.9% | 45.3% | 54% | 7.04% | 8.4% | 6.3% | inhibition [24]: 2.3%
O=c1ccc2ccccc2o1 [COUMARIN] | – | – | 5% | 12.7% | 89.3% | 28.5% | 15.1% | No action | 63.9% | 98% | 95.9% | – | 6.7% | 5.8% | 21% | 78% | 30.2% | 4.9% | – | – | –
CC(O)Cc1ccc2ccc(=O)oc2c1 (stereo not given) | – | 92.3% | 29.3% | 41.1% | 63.1% | 31.3% | 100% | – | 100% | 99.4% | 95.4% | 80.7% | 25.6% | 22.9% | 13.3% | 81.8% | 18% | 14.5% | 16.8% | 18.4% | inhibition [25]: No action; inhibition [23]: No action; inhibition [24]: 7.5%
COc1ccc2c(c1)c(CC(=O)O)c(C)n2C(=O)c1ccc(Cl)cc1 [INDOMETHACIN] | – | – | – | – | – | – | – | – | – | – | – | – | – | – | – | – | 47% | – | – | – | –

The next lines start with results.

inhibition [1] | inhibition [4] | inhibition [7] | inhibition [8] | inhibition [9] | inhibition [10] | inhibition [13] | inhibition [15] | inhibition [16] | inhibition [18] | inhibition [20] | Compound | Competition [2] | RA [3] | RA [5] | RA [11] | Competition [12] | inhibition in vivo at 5 µmol/kg [14] | RA [17] | RA [19] | RA [21] | further results
37.2% | 100% | 20.3% | 70.7% | 98.7% | 28.5% | 98.8% | 37.4% | 100% | 98.5% | 77.7% | O=c1ccc2ccc(/C=N/O)cc2o1 | 43.4% | 12.8% | 9.7% | 4.8% | 50.8% | 58.6% | 0.29% | 7.1% | 3.52% | inhibition [6]: No action
– | 94.1% | 25.5% | 100% | 56.9% | 16.6% | 100% | – | 100% | 99.9% | 100% | CO/N=C/c1ccc2ccc(=O)oc2c1 | 85.6% | 11.9% | 13.9% | 9.8% | 90.2% | 31.1% | 12.7% | 11.6% | 14.5% | inhibition [25]: No action; inhibition [23]: No action; inhibition [24]: 21.9%
8.6% | 98.9% | 12.6% | 83.4% | 96.6% | 22.7% | 89.7% | 32.8% | 98.9% | 99.1% | 100% | O=Cc1ccc2ccc(=O)oc2c1 | 33.9% | 12.8% | 16.2% | 3.5% | 35.2% | 29.3% | 1.47% | 7.1% | 2.49% | inhibition [6]: No action
54.3% | 95.4% | 22.6% | 35.3% | 73.9% | 10% | 100% | 90.5% | 83.4% | 97.6% | 95.9% | O=c1ccc2ccc(/C=N/c3ccccc3)cc2o1 | 72.2% | 11.6% | 14.3% | 10% | 89.6% | 42.5% | 12.9% | 10.6% | 13.5% | inhibition [24]: 26.1%
73.5% | 95.9% | 13.6% | 90.4% | 97.4% | 16.4% | 88.9% | 48.1% | 97.7% | 88.7% | 100% | Cc1ccc2ccc(=O)oc2c1 | 30.2% | 3.5% | 2.05% | 2.5% | 43.8% | 55.1% | 0.29% | 5.4% | 1.61% | inhibition [6]: No action
70.8% | 93.3% | 22.6% | – | 93.9% | 10% | 100% | – | 83.4% | 97.6% | 100% | CN/N=C/c1ccc2ccc(=O)oc2c1 | 97.3% | 87.3% | 92.4% | 80.7% | – | 54.7% | 69.7% | 86.7% | 84.8% | inhibition [22]: No action; Competition [26]: No results; inhibition [23]: No action; inhibition [24]: 6.9%
